Data on two compounds can be found in paper PMC12694606, “DNA-programmed bispecific peptide assemblies for delivering cytotoxic payload to cells expressing EGFR and MET receptors” (RSC Chemical Biology, 2025).

Non-standard residues stand in square brackets, D forms with d. Residues, ends and D or L forms follow the SMILES beside them. *: point of attachment. Dolaproine = CO[C@@H]([C@@H]1CCCN1)[C@@H](C)C(=O)O; Dil = CC[C@H](C)[C@H](NC)[C@@H](CC(=O)O)OC; X1 = C[C@@H](N*)[C@@H](O)c1ccccc1; NMeV = CN[C@H](C(=O)O)C(C)C

In the assay the test system is A549 cells (EGFR+, MET+). The assay can be described thus: AlamarBlue cell viability assay, A549 cells.

Description: Fig. 5 (a) Arming DNA-template strands in OS21 and OS21+3 with the toxin vcMMAE. […] Viability was normalized to PBS treatment (100% value) and ethanol treatment (0% value). Conditions: 10^4 cells per well in 100 µL medium and propagated 24 h to a confluency of ca. 85% cells, probes were incubated for 10 min in PBS, 37 °C, 5% CO2; AlamarBlue assay in full medium, 6 h.
A549 cells were incubated with the oligonucleotide assemblies for ten minutes. Cell viability was assessed six hours later using an AlamarBlue assay. […] For comparison, we assessed the viability response to treatment with MMAE at a 100 nM concentration in unconjugated form. […] Next, the cells were treated in the presence of HGF.
A549 cells were seeded into wells of a 96 well-microtiter plate (100 μL in respective medium)
at a density of 10 4 cells/well. Cells were allowed to grow for 24 h to a confluency of ca. 85%.
The medium was removed and wells carefully washed once with PBS (preheated at 37°C). The
probes were added at specific concentrations in PBS with or without HGF (100 ng/mL). The
cells were incubated at 37°C, 5% CO 2 for 10 minutes. After one careful wash with PBS, 10%
alamar blue was added, and the fluorescence signal (590 nm) was recorded after 6 hours using
Cytotoxicity of cathepsin B-cleavable vcMMAE-DNA-peptide complex with different […]

For the compound `CC[C@H](C)[C@@H]([C@@H](CC(=O)N1CCC[C@H]1[C@H](OC)[C@@H](C)C(=O)N[C@H](C)[C@@H](O)c1ccccc1)OC)N(C)C(=O)[C@@H](NC(=O)[C@@H](NC)C(C)C)C(C)C` [MMAE, monomethyl auristatin E] (H-[NMeV]V[Dil][Dolaproine]-X1), under “100 nM, unconjugated form, 10 min in PBS, AlamarBlue 6 h (Fig. S17)”, the cell viability (commonly a per cent measure of how many cells are alive, often set against a control) stood at 79%.
With “HGF: hepatocyte growth factor, used at 100 ng/mL to induce MET internalization”, the “cell viability, control experiments (in words)” value (Fig. S17, 10 min in PBS, AlamarBlue 6 h) is “unaffected”.
